Measured values published in PubChem BioAssay (NCI).
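Cultured in 96-well plates, cells were exposed to test compound for 48 hours across five concentrations. GI50 is the concentration that inhibits growth by half. At the TGI there is no net growth.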

Assays:
Assay in all cases: growth of human tumour cells (NCI), 48 h
T-47D breast = test system: T-47D breast
MDA-MB-435 = test system: MDA-MB-435
MCF7 breast = test system: MCF7 breast
SK-MEL-28 melanoma = test system: SK-MEL-28 melanoma
SW-620 colon = test system: SW-620 colon
ACHN renal = test system: ACHN renal
OVCAR-5 ovarian = test system: OVCAR-5 ovarian
HS 578T breast = test system: HS 578T breast
HOP-62 NSCLC = test system: HOP-62 NSCLC
SK-MEL-2 melanoma = test system: SK-MEL-2 melanoma

Clc1cccc(-c2cc(-c3ccc4c(c3)OCCO4)[nH]n2)c1
GI50 (T-47D breast): 3.64 µM
TGI (T-47D breast): 53.8 µM
GI50 (MDA-MB-435): 0.578 µM
TGI (MDA-MB-435): 26.1 µM
GI50 (MCF7 breast): 4.25 µM
TGI (MCF7 breast): 32.9 µM
GI50 (SK-MEL-28 melanoma): 27.2 µM
TGI (SK-MEL-28 melanoma): 57 µM
GI50 (SW-620 colon): 1.09 µM
TGI (SW-620 colon): 44.9 µM
GI50 (ACHN renal): 9.69 µM
TGI (ACHN renal): 41 µM
GI50 (OVCAR-5 ovarian): 10.4 µM
TGI (OVCAR-5 ovarian): 47.7 µM
GI50 (HS 578T breast): 6.67 µM
TGI (HS 578T breast): 63.3 µM
GI50 (HOP-62 NSCLC): 2.39 µM
TGI (HOP-62 NSCLC): 41.6 µM
GI50 (SK-MEL-2 melanoma): 18.9 µM
TGI (SK-MEL-2 melanoma): 74.9 µM

O=c1oc2ccccc2cc1P(=O)(O)O
TGI (T-47D breast): > 100 µM
TGI (MDA-MB-435): > 100 µM
TGI (MCF7 breast): > 100 µM
TGI (SK-MEL-28 melanoma): > 100 µM
TGI (SW-620 colon): > 100 µM
TGI (ACHN renal): > 100 µM
TGI (OVCAR-5 ovarian): > 100 µM
TGI (HS 578T breast): > 100 µM
TGI (HOP-62 NSCLC): > 100 µM
TGI (SK-MEL-2 melanoma): > 100 µM

CCCCCOC(=O)c1c(C)[nH]c(/C=C2\N=C(c3ccc[nH]3)C=C2OC)c1C
GI50 (T-47D breast): 0.0369 µM
TGI (T-47D breast): 1.37 µM
GI50 (MDA-MB-435): 0.0348 µM
TGI (MDA-MB-435): 0.734 µM
GI50 (MCF7 breast): 0.0451 µM
TGI (MCF7 breast): 1.14 µM
GI50 (SK-MEL-28 melanoma): 0.129 µM
TGI (SK-MEL-28 melanoma): 1.25 µM
GI50 (SW-620 colon): 0.0308 µM
TGI (SW-620 colon): 1.28 µM
GI50 (ACHN renal): 0.0396 µM
TGI (ACHN renal): 1.21 µM
GI50 (OVCAR-5 ovarian): 0.0191 µM
TGI (OVCAR-5 ovarian): 1.21 µM
GI50 (HS 578T breast): 0.0211 µM
TGI (HS 578T breast): 0.172 µM
GI50 (HOP-62 NSCLC): 0.0436 µM
TGI (HOP-62 NSCLC): 0.937 µM
GI50 (SK-MEL-2 melanoma): 0.0222 µM
TGI (SK-MEL-2 melanoma): 0.0681 µM

C/C(=C1\C(=O)Nc2ccccc21)c1cccc(/C(C)=C2/C(=O)Nc3ccccc32)n1
GI50 (T-47D breast): 4.63 µM
TGI (T-47D breast): > 100 µM
GI50 (MDA-MB-435): 2.57 µM
TGI (MDA-MB-435): 13.4 µM
GI50 (MCF7 breast): 3.74 µM
TGI (MCF7 breast): > 100 µM
GI50 (SK-MEL-28 melanoma): 31.5 µM
TGI (SK-MEL-28 melanoma): > 100 µM
GI50 (SW-620 colon): 7.69 µM
TGI (SW-620 colon): > 100 µM
GI50 (ACHN renal): 8.56 µM
TGI (ACHN renal): 48.1 µM
GI50 (OVCAR-5 ovarian): 48.4 µM
TGI (OVCAR-5 ovarian): > 100 µM
GI50 (HS 578T breast): 4.1 µM
TGI (HS 578T breast): > 100 µM
GI50 (HOP-62 NSCLC): 15.5 µM
TGI (HOP-62 NSCLC): 74.1 µM
GI50 (SK-MEL-2 melanoma): 63.4 µM
TGI (SK-MEL-2 melanoma): > 100 µM

CCOc1cc(/C=C/C(=O)CC(=O)/C=C/c2ccc(OC(=O)CNc3nc4ccc(OC)cc4s3)c(OCC)c2)ccc1OC(=O)CNc1nc2ccc(OC)cc2s1
GI50 (T-47D breast): 10.6 µM
TGI (T-47D breast): 43.1 µM
GI50 (MDA-MB-435): 2.46 µM
TGI (MDA-MB-435): 8.3 µM
GI50 (MCF7 breast): 2.54 µM
TGI (MCF7 breast): 10.8 µM
GI50 (SK-MEL-28 melanoma): 3.54 µM
TGI (SK-MEL-28 melanoma): 12.2 µM
GI50 (SW-620 colon): 3.78 µM
TGI (SW-620 colon): 13.2 µM
GI50 (ACHN renal): 14.2 µM
TGI (ACHN renal): 60.2 µM
GI50 (OVCAR-5 ovarian): 15.3 µM
TGI (OVCAR-5 ovarian): 34 µM
GI50 (HS 578T breast): 3.16 µM
TGI (HS 578T breast): 23.9 µM
GI50 (HOP-62 NSCLC): 23 µM
TGI (HOP-62 NSCLC): > 100 µM
GI50 (SK-MEL-2 melanoma): 4.94 µM
TGI (SK-MEL-2 melanoma): 29.1 µM

CCN(Cc1ccccc1)c1ccc(/C=C2\COc3ccccc3C2=O)cc1
GI50 (T-47D breast): 213 µM
TGI (T-47D breast): > 1000 µM
GI50 (MDA-MB-435): 47 µM
TGI (MDA-MB-435): 458 µM
GI50 (MCF7 breast): 69.4 µM
TGI (MCF7 breast): > 1000 µM
GI50 (SK-MEL-28 melanoma): > 1000 µM
TGI (SK-MEL-28 melanoma): > 1000 µM
GI50 (SW-620 colon): 146 µM
TGI (SW-620 colon): > 1000 µM
GI50 (ACHN renal): > 1000 µM
TGI (ACHN renal): > 1000 µM
GI50 (OVCAR-5 ovarian): > 1000 µM
TGI (OVCAR-5 ovarian): > 1000 µM
GI50 (HS 578T breast): > 1000 µM
TGI (HS 578T breast): > 1000 µM
GI50 (HOP-62 NSCLC): > 1000 µM
TGI (HOP-62 NSCLC): > 1000 µM
GI50 (SK-MEL-2 melanoma): > 1000 µM
TGI (SK-MEL-2 melanoma): > 1000 µM
